# Values of other authors, collected in patent US9072700B2, “Methods of using derivatives of (−)-venlafaxine” (Sunovion Pharmaceuticals Inc., priority 1998, dated 2015).
# Legend:
# [1] = test system: dopamine uptake; details: in vitro; Muth et al. 1991
# [2] = test system: norepinephrine uptake; details: in vitro; Muth et al. 1991
# [3] = Klamerus et al. 1992
# [4] = test system: serotonin uptake; details: Howell et al. 1994
# [5] = test system: norepinephrine synaptosomal uptake; details: Howell et al. 1994
compound,measurement,setting,value
"CN(C)CC(c1ccc(O)cc1)C1(O)CCCCC1 (racemic) [O-desmethylvenlafaxine, (±)-1-[2-(dimethylamino)-1-(4-phenol)ethyl]cyclohexanol]",inhibition of dopamine uptake compared with racemic venlafaxine,[1],more potent inhibitor
same,inhibition of norepinephrine uptake compared with racemic venlafaxine,[2],more potent inhibitor
same,half-life (t½),[3],about 10 hours
same,half-life relative to that of venlafaxine,[3]; ratio to venlafaxine half-life,approximately 2.5 times
"COc1ccc(C(CN(C)C)C2(O)CCCCC2)cc1 (single isomer, unassigned; (+)) [(+) enantiomer]","selectivity in inhibiting serotonin uptake, enantiomer comparison",[4],more selective
COc1ccc([C@H](CN(C)C)C2(O)CCCCC2)cc1 [(−) enantiomer],"inhibition of norepinephrine synaptosomal uptake, enantiomer comparison",[5],more potent inhibitor
